Results reported in US9999222B2, “Herbicidal combination comprising azines” (BASF SE, priority 2014, dated 2018).
Where two headings read alike, the source gives them in different places.

Columns and labels:
Test in all cases: Greenhouse test, pre-emergence treatment
[1] = tested on: COMBE; format: in vivo, Commelina benghalensis; settings: Commelina benghalensis, pre-emergence, 480 h
In short: (§1)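 Damage was rated on a 0-100 scale, with 100 meaning no emergence or full destruction of aerial parts. Observed combination effects were set against the additive Colby expectation E=X+Y−(X·Y/100). Spray liquor was water-based, from 10% emulsion concentrates, applied pre-emergence right after sowing in loamy sand (about 3.0% humus). Plants were held at 10-25 °C or 20-35 °C for 2 to 4 weeks.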

[2] = tested on: ABUTH; format: in vivo, Abutilon theophrasti; settings: Abutilon theophrasti, 480 h
In short: as §1

[3] = tested on: ANTAR; format: in vivo; settings: Anthemis arvensis, 480 h, 20 DAT, read-out: observed % activity
In short: as §1

[4] = tested on: CENCY; format: in vivo; settings: 480 h, individual, read-out: observed % activity 20 DAT
[5] = tested on: EPHHL; format: in vivo, Euphorbia heterophylla; settings: Euphorbia heterophylla, pre-emergence, 480 h
In short: as §1

[6] = tested on: SIDRH; format: in vivo, Sida rhombifolia; settings: Sida rhombifolia, pre-emergence, 480 h, 20 DAT, read-out: observed % activity
In short: as §1

[7] = tested on: KCHSC; format: in vivo, Kochia scoparia; settings: Bassia scoparia, pre-emergence, 480 h
In short: as §1

[8] = tested on: POLCO; format: in vivo, Polygonum convolvulus; settings: Fallopia convolvulus, pre-emergence, 480 h
In short: as §1

[9] = tested on: GERPU; format: in vivo, Geranium pusillum; settings: Geranium pusillum, pre-emergence, 480 h
In short: as §1

[10] = tested on: IPOHE; format: in vivo, Ipomoea hederacea; settings: Ipomoea hederacea, 480 h, IPOHE, individual, use rate 50 g ai/ha, read-out: observed % activity 20 DAT
In short: as §1

[11] = tested on: GALAP; format: in vivo, Galium aparine; settings: Galium aparine, pre-emergence, 480 h
In short: as §1

[12] = 25 g ai/ha, 20 DAT, read-out: observed % activity
[13] = 50 g ai/ha, 20 DAT, read-out: observed % activity

`CS(=O)(=O)c1cc(C(F)(F)F)ccc1C(=O)c1cnoc1C1CC1` [isoxaflutole] showed an inhibition at 25 g/ha [1, 12] of 85%, an inhibition at 50 g/ha [1, 13] of 80% and an inhibition at 50 g/ha ([1]; COMBE, individual, use rate 50 g ai/ha, read-out: observed % activity 20 DAT) of 45%. For the same compound, the inhibition at 25 g/ha [2, 12] was 98%, the inhibition at 50 g/ha ([2]; ABUTH, individual, use rate 50 g ai/ha, read-out: observed % activity 20 DAT) was 95% and the inhibition at 25 g/ha ([3]; 25 g ai/ha) was 95%. The inhibition at 50 g/ha ([3]; 50 g ai/ha) was 98%, the inhibition at 25 g/ha ([4]; use rate 25 g ai/ha) was 20% and the inhibition at 50 g/ha ([4]; use rate 50 g ai/ha) was 60%. It also gave an inhibition at 25 g/ha [5, 12] of 85%, an inhibition at 50 g/ha [5, 13] of 85% and an inhibition at 25 g/ha ([5]; EPHHL, individual, use rate 25 g ai/ha, read-out: observed % activity 20 DAT) of 65%. For the same compound, the inhibition at 50 g/ha ([5]; EPHHL, individual, use rate 50 g ai/ha, read-out: observed % activity 20 DAT) was 70%, the inhibition at 25 g/ha ([6]; 25 g ai/ha) was 90% and the inhibition at 50 g/ha ([6]; 50 g ai/ha) was 98%. It also gave an inhibition at 25 g/ha [7, 12] of 98%, an inhibition at 50 g/ha [7, 13] of 98% and an inhibition at 25 g/ha ([7]; KCHSC, individual, use rate 25 g ai/ha, read-out: observed % activity 20 DAT) of 98%. For the same compound, the inhibition at 50 g/ha ([7]; KCHSC, individual, use rate 50 g ai/ha, read-out: observed % activity 20 DAT) was 98%, the inhibition at 25 g/ha [8, 12] was 0% and the inhibition at 50 g/ha [8, 13] was 30%. The inhibition at 25 g/ha ([8]; POLCO, individual, use rate 25 g ai/ha, read-out: observed % activity 20 DAT) was 0%, the inhibition at 50 g/ha ([8]; POLCO, individual, use rate 50 g ai/ha, read-out: observed % activity 20 DAT) was 0% and the inhibition at 25 g/ha [9, 12] was 0%. The inhibition at 50 g/ha [9, 13] was 45%, the inhibition at 25 g/ha ([9]; GERPU, individual, use rate 25 g ai/ha, read-out: observed % activity 20 DAT) was 70% and the inhibition at 50 g/ha ([9]; GERPU, individual, use rate 50 g ai/ha, read-out: observed % activity 20 DAT) was 50%. For the same compound, the inhibition at 50 g/ha [10] was 35%, the inhibition at 25 g/ha [11, 12] was 40% and the inhibition at 25 g/ha ([11]; GALAP, individual, use rate 25 g ai/ha, read-out: observed % activity 20 DAT) was 40%. For the same compound, the inhibition at 50 g/ha ([11]; GALAP, individual, use rate 50 g ai/ha, read-out: observed % activity 20 DAT) was 70%.
